# In patent publication US20230295119A1, “SUBSTITUTED PYRIDINES FOR THE TREATMENT OF INFLAMMATORY DISEASES” (GOSSAMER BIO SERVICES, INC., priority 2020, published 2023):
# What was measured:
# human JAK1 = human JAK1 (Homo sapiens (Human), UniProt P23458); assay: JAK1 TR-FRET kinase assay; format: biochemical; conditions: TR-FRET, JAK1 2.5 nM
# human JAK2 = human JAK2 (Homo sapiens (Human), UniProt O60674); assay: JAK2 TR-FRET kinase assay; format: biochemical; conditions: JAK2 0.025 nM
# human JAK3 = human JAK3 (Homo sapiens (Human), UniProt P52333); assay: JAK3 TR-FRET kinase assay; format: biochemical; conditions: JAK3 0.0125 nM
# TYK2 JH2 domain = TYK2 JH2 domain (Homo sapiens (Human), UniProt P29597); assay: TYK2 JH2 NanoBRET assay; format: binding; conditions: Table 20, read-out: TYK2 IC50
# Summary of the method: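 HEK293T cells transiently expressing NanoLuc-TYK2 JH2 fusion, incubated 2 h with compound and NanoBRET K10 tracer (0.5 µM final). Target engagement read as acceptor/donor BRET ratio after Nano-Glo substrate plus extracellular NanoLuc inhibitor.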
# Chain of TYK2 JH2 domain (P29597 589-875): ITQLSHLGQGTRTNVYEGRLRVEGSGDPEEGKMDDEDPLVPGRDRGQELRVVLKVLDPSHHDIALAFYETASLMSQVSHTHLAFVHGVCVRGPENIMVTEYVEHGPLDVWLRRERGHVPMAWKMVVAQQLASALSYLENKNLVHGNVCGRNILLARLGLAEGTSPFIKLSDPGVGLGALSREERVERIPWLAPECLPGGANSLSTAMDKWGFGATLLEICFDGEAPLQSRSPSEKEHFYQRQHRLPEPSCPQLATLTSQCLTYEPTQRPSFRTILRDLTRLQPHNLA
# Chain of human JAK1 (P23458 whole entry): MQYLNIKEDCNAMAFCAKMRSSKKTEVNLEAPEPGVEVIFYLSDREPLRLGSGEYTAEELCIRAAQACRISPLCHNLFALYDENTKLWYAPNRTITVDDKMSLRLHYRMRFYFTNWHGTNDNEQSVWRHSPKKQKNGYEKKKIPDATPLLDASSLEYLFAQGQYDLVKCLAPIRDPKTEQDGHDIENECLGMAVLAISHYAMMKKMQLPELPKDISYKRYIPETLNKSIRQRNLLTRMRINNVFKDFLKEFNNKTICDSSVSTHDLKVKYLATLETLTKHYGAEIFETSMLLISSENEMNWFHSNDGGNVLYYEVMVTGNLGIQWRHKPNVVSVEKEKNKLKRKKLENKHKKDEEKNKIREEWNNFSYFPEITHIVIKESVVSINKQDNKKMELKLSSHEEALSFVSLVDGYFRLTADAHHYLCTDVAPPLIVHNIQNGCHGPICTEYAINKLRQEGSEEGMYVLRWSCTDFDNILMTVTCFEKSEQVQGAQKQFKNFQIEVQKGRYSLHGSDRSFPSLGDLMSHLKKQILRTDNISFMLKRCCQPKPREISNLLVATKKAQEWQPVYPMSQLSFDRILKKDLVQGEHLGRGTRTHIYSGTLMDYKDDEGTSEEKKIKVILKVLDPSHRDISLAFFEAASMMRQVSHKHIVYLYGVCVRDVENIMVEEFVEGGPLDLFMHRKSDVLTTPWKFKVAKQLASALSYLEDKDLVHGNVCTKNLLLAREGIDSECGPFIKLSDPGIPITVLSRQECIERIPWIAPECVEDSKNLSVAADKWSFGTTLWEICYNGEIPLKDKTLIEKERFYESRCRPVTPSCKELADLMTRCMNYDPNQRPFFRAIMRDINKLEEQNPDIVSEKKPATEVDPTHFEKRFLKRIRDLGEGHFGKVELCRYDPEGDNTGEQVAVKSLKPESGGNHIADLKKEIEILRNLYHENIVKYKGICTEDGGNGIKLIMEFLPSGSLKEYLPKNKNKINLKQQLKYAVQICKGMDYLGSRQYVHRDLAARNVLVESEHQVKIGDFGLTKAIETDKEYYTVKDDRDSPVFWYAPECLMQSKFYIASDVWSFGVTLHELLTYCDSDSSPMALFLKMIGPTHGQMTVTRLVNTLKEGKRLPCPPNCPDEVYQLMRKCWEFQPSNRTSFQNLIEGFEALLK
# Chain of human JAK2 (O60674 whole entry): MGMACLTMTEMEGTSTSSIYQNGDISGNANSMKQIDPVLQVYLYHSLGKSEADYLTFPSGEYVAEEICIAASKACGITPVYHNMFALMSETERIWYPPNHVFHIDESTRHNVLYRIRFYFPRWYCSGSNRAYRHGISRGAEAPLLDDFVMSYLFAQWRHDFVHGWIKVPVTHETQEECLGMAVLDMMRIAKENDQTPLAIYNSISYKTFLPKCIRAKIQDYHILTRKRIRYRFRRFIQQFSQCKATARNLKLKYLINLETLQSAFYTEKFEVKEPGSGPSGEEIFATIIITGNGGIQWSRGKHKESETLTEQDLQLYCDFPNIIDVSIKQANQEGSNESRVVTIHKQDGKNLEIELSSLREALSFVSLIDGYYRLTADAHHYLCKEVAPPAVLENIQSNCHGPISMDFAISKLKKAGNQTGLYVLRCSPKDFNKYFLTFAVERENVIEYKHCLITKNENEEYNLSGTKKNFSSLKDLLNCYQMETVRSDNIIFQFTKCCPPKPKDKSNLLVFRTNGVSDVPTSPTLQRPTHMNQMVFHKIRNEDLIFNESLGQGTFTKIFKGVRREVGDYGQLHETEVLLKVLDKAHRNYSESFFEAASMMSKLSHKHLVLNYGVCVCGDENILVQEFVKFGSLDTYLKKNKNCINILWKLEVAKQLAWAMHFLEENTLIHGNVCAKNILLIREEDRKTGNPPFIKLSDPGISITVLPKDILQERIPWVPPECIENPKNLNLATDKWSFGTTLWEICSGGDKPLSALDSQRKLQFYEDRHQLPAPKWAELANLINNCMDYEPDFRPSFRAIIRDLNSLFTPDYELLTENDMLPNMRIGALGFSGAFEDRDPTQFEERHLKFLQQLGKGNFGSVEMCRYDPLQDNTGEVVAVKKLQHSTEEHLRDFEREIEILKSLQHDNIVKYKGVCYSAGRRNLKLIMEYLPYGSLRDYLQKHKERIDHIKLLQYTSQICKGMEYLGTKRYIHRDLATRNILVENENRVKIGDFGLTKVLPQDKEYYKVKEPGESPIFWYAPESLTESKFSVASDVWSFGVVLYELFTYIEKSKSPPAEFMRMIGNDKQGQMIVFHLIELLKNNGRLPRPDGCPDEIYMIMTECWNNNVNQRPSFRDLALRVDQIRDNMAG
# Chain of human JAK3 (P52333 whole entry, the tested form may be a part): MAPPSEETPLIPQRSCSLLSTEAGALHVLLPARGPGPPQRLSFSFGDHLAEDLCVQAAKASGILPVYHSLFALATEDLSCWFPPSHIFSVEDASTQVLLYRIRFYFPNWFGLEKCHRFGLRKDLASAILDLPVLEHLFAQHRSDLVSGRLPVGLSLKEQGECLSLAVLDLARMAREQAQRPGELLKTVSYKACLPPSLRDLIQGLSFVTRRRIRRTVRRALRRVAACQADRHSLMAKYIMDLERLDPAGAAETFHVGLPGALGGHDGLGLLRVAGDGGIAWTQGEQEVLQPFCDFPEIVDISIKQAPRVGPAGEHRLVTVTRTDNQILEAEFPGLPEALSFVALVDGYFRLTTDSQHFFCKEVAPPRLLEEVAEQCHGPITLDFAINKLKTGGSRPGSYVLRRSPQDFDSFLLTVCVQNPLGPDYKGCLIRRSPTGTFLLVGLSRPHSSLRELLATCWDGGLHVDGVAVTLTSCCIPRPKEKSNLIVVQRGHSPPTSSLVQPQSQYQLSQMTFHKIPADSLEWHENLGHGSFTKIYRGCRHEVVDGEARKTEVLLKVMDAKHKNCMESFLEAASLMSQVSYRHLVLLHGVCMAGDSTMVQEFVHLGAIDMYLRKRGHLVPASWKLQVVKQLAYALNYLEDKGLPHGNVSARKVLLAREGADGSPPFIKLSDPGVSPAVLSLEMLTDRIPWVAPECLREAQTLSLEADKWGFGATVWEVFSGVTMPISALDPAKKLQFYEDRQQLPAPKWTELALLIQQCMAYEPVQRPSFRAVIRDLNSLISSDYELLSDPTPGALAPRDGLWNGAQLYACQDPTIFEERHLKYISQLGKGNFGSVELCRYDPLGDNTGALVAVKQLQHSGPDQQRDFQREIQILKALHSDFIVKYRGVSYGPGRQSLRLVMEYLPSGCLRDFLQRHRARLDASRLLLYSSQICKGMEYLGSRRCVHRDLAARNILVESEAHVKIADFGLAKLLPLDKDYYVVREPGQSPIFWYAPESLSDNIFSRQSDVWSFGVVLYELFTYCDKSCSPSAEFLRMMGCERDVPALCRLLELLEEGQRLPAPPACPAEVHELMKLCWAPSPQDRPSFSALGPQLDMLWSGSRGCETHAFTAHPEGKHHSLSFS
Structure (SMILES),IC50 (human JAK1),IC50 (human JAK2),IC50 (human JAK3),IC50 (TYK2 JH2 domain)
CCC(=O)c1cnc(Nc2cnc(O[C@H]3CN(C)C[C@H]3F)cn2)cc1Nc1cccc(-c2ncn(C)n2)c1OC [Compound 18BBB],≥ 500 nM,≥ 500 nM,≥ 500 nM,5 to 50 nM
CCC(=O)c1cnc(Nc2ccc(O[C@@H]3CCOC3)cn2)cc1Nc1cccc(-c2ncn(C)n2)c1OC [Compound 18BB],≥ 500 nM,≥ 500 nM,≥ 500 nM,< 5 nM
COc1c(Nc2cc(Nc3ccc(OCCO)cn3)ncc2C(=O)C2CC2)cccc1-c1ncn(C)n1 [Compound 18B],≥ 500 nM,≥ 500 nM,≥ 500 nM,< 5 nM
CCC(=O)c1cnc(Nc2ncc(OCC3COC3)cc2F)cc1Nc1cccc(-c2ncn(C)n2)c1OC [Compound 18CCCC],≥ 500 nM,≥ 500 nM,≥ 500 nM,50 to 500 nM
CCC(=O)c1cnc(Nc2cnc(O[C@@H]3CCN(C)C3)cn2)cc1Nc1nccc(-c2ncn(C)n2)c1OC [Compound 18CCC],≥ 500 nM,≥ 500 nM,≥ 500 nM,≥ 500 nM
CCC(=O)c1cnc(Nc2ccc(OCCN3CCCC3)nn2)cc1Nc1cccc(-c2ncn(C)n2)c1OC [Compound 18CC],≥ 500 nM,≥ 500 nM,≥ 500 nM,< 5 nM
COc1c(Nc2cc(Nc3ccc(OCCCO)cn3)ncc2C(=O)C2CC2)cccc1-c1ncn(C)n1 [Compound 18C],≥ 500 nM,≥ 500 nM,≥ 500 nM,< 5 nM
CCC(=O)c1cnc(Nc2ccc(OC3CN(C)C3)nn2)cc1Nc1cccc(-c2ncn(C)n2)c1OC [Compound 18DDDD],≥ 500 nM,≥ 500 nM,≥ 500 nM,5 to 50 nM
CCC(=O)c1cnc(Nc2ccc(OCCCN3CCCC3)nn2)cc1Nc1cccc(-c2ncn(C)n2)c1OC [Compound 18DD],≥ 500 nM,≥ 500 nM,≥ 500 nM,< 5 nM
CCC(=O)c1cnc(Nc2ccc(OCCOC)cn2)cc1Nc1cccc(-c2ncn(C)n2)c1OC [Compound 18D],≥ 500 nM,≥ 500 nM,50 to 500 nM,5 to 50 nM
CCC(=O)c1cnc(Nc2cnc(OC3CCN(C)CC3)cn2)cc1Nc1cccc(-c2ncn(C)n2)c1OC [Compound 18EEE],≥ 500 nM,≥ 500 nM,≥ 500 nM,< 5 nM
CCC(=O)c1cnc(Nc2ccc(OC3CCN(C)CC3)nn2)cc1Nc1cccc(-c2ncn(C)n2)c1OC [Compound 18EE],≥ 500 nM,≥ 500 nM,≥ 500 nM,< 5 nM
CCC(=O)c1cnc(Nc2ccc(OCC(C)(C)O)cn2)cc1Nc1cccc(-c2ncn(C)n2)c1OC [Compound 18E],≥ 500 nM,50 to 500 nM,50 to 500 nM,< 5 nM
CCC(=O)c1cnc(Nc2ccc(O[C@@H]3CCN(C)C3)nn2)cc1Nc1cccc(-c2ncn(C)n2)c1OC [Compound 18FF],≥ 500 nM,≥ 500 nM,≥ 500 nM,5 to 50 nM
CCC(=O)c1cnc(Nc2ccc(OC[C@@H](O)CO)cn2)cc1Nc1cccc(-c2ncn(C)n2)c1OC [Compound 18F],≥ 500 nM,≥ 500 nM,50 to 500 nM,5 to 50 nM
CCC(=O)c1cnc(Nc2cnc(OCCN3CCOCC3)cn2)cc1Nc1cccc(-c2ncn(C)n2)c1OC [Compound 18GGG],≥ 500 nM,≥ 500 nM,≥ 500 nM,5 to 50 nM
CCC(=O)c1cnc(Nc2ccc(O[C@H]3CCN(C)C3)nn2)cc1Nc1cccc(-c2ncn(C)n2)c1OC [Compound 18GG],≥ 500 nM,≥ 500 nM,≥ 500 nM,5 to 50 nM
CCC(=O)c1cnc(Nc2ccc(OC[C@H](O)CO)cn2)cc1Nc1cccc(-c2ncn(C)n2)c1OC [Compound 18G],≥ 500 nM,≥ 500 nM,≥ 500 nM,5 to 50 nM
CCC(=O)c1cnc(Nc2cnc(OCCn3cnc(C)c3)cn2)cc1Nc1cccc(-c2ncn(C)n2)c1OC [Compound 18HHH],≥ 500 nM,≥ 500 nM,≥ 500 nM,5 to 50 nM
CCC(=O)c1cnc(Nc2ccnc(OCCCN(C)C)n2)cc1Nc1cccc(-c2ncn(C)n2)c1OC [Compound 18HH],≥ 500 nM,≥ 500 nM,≥ 500 nM,< 5 nM
CCC(=O)c1cnc(Nc2ccc(OC(CO)CO)cn2)cc1Nc1cccc(-c2ncn(C)n2)c1OC [Compound 18H],≥ 500 nM,≥ 500 nM,≥ 500 nM,5 to 50 nM
CCC(=O)c1cnc(Nc2cnc(OCCn3ccnc3C)cn2)cc1Nc1cccc(-c2ncn(C)n2)c1OC [Compound 18III],≥ 500 nM,≥ 500 nM,≥ 500 nM,5 to 50 nM

Structure (SMILES),IC50 (human JAK1),IC50 (human JAK2),IC50 (human JAK3),IC50 (TYK2 JH2 domain)
CCC(=O)c1cnc(Nc2ccnc(OC3CCN(C)CC3)n2)cc1Nc1cccc(-c2ncn(C)n2)c1OC [Compound 18II],≥ 500 nM,≥ 500 nM,≥ 500 nM,5 to 50 nM
COc1c(Nc2cc(Nc3ccc(OC[C@@H](O)CO)cn3)ncc2C(=O)C2CC2)cccc1-c1ncn(C)n1 [Compound 18I],≥ 500 nM,≥ 500 nM,≥ 500 nM,5 to 50 nM
CCC(=O)c1cnc(Nc2cnc(O[C@@H]3CCN(C)C3)c(C)n2)cc1Nc1cccc(-c2ncn(C)n2)c1OC [Compound 18JJJ],≥ 500 nM,≥ 500 nM,≥ 500 nM,5 to 50 nM
CCC(=O)c1cnc(Nc2ccnc(OC3CN(C)C3)n2)cc1Nc1cccc(-c2ncn(C)n2)c1OC [Compound 18JJ],≥ 500 nM,≥ 500 nM,≥ 500 nM,5 to 50 nM
COc1c(Nc2cc(Nc3ccc(OC[C@H](O)CO)cn3)ncc2C(=O)C2CC2)cccc1-c1ncn(C)n1 [Compound 18J],≥ 500 nM,≥ 500 nM,≥ 500 nM,5 to 50 nM
CCC(=O)c1cnc(Nc2cnc(O[C@@H]3CCN(CC(F)F)C3)cn2)cc1Nc1cccc(-c2ncn(C)n2)c1OC [Compound 18KKK],≥ 500 nM,≥ 500 nM,≥ 500 nM,5 to 50 nM
CCC(=O)c1cnc(Nc2ccnc(O[C@H]3CCN(C)C3)n2)cc1Nc1cccc(-c2ncn(C)n2)c1OC [Compound 18KK],≥ 500 nM,≥ 500 nM,≥ 500 nM,5 to 50 nM
COc1c(Nc2cc(Nc3ccc(OC(CO)CO)cn3)ncc2C(=O)C2CC2)cccc1-c1ncn(C)n1 [Compound 18K],≥ 500 nM,≥ 500 nM,≥ 500 nM,5 to 50 nM
CCC(=O)c1cnc(Nc2cnc(O[C@@H]3CCN(CC(F)(F)F)C3)cn2)cc1Nc1cccc(-c2ncn(C)n2)c1OC [Compound 18LLL],≥ 500 nM,≥ 500 nM,≥ 500 nM,5 to 50 nM
CCC(=O)c1cnc(Nc2ccnc(O[C@@H]3CCN(C)C3)n2)cc1Nc1cccc(-c2ncn(C)n2)c1OC [Compound 18LL],≥ 500 nM,≥ 500 nM,≥ 500 nM,5 to 50 nM
CCC(=O)c1cnc(Nc2ccc(OC(C)(C)C(=O)O)c(C)n2)cc1Nc1cccc(-c2ncn(C)n2)c1OC [Compound 18L],≥ 500 nM,50 to 500 nM,50 to 500 nM,≥ 500 nM
CCC(=O)c1cnc(Nc2cnc(O[C@@H]3C[C@H](C)N(C)C3)cn2)cc1Nc1cccc(-c2ncn(C)n2)c1OC [Compound 18MMM],≥ 500 nM,≥ 500 nM,≥ 500 nM,5 to 50 nM
CCC(=O)c1cnc(Nc2cnc(OCCN)cn2)cc1Nc1cccc(-c2ncn(C)n2)c1OC [Compound 18MM],≥ 500 nM,≥ 500 nM,≥ 500 nM,< 5 nM
CCC(=O)c1cnc(Nc2ccc(OCCO)nn2)cc1Nc1cccc(-c2ncn(C)n2)c1OC [Compound 18M],≥ 500 nM,≥ 500 nM,≥ 500 nM,< 5 nM
[2H]C([2H])([2H])N1CC[C@@H](Oc2cnc(Nc3cc(Nc4cccc(-c5ncn(C)n5)c4OC)c(C(=O)CC)cn3)cn2)C1 [Compound 18NNN],≥ 500 nM,≥ 500 nM,≥ 500 nM,5 to 50 nM
CCC(=O)c1cnc(Nc2cnc(OCCNC)cn2)cc1Nc1cccc(-c2ncn(C)n2)c1OC [Compound 18NN],≥ 500 nM,≥ 500 nM,≥ 500 nM,< 5 nM
CCC(=O)c1cnc(Nc2ccc(OCCCO)nn2)cc1Nc1cccc(-c2ncn(C)n2)c1OC [Compound 18N],≥ 500 nM,≥ 500 nM,≥ 500 nM,< 5 nM
CCC(=O)c1cnc(Nc2cnc(O[C@@H]3CCCN(C)C3)cn2)cc1Nc1cccc(-c2ncn(C)n2)c1OC [Compound 18PPP],≥ 500 nM,≥ 500 nM,≥ 500 nM,5 to 50 nM
CCC(=O)c1cnc(Nc2cnc(OCCN3CC(F)C3)cn2)cc1Nc1cccc(-c2ncn(C)n2)c1OC [Compound 18PP],≥ 500 nM,≥ 500 nM,≥ 500 nM,5 to 50 nM
CCC(=O)c1cnc(Nc2cnc(OCCO)cn2)cc1Nc1cccc(-c2ncn(C)n2)c1OC [Compound 18P],≥ 500 nM,≥ 500 nM,≥ 500 nM,5 to 50 nM
CCC(=O)c1cnc(Nc2cnc(O[C@H]3CCCN(C)C3)cn2)cc1Nc1cccc(-c2ncn(C)n2)c1OC [Compound 18QQQ],≥ 500 nM,≥ 500 nM,≥ 500 nM,5 to 50 nM
CCC(=O)c1cnc(Nc2cnc(OCCN3CC(F)(F)C3)cn2)cc1Nc1cccc(-c2ncn(C)n2)c1OC [Compound 18QQ],≥ 500 nM,≥ 500 nM,≥ 500 nM,5 to 50 nM
